Like-named read-outs stand apart in the source and are kept apart here.
Experiments:
A549 cells [1] = experiment: cell number (cell viability) in A549 cells, Hoechst 33342, automated microscopy; type: cell-based, human; conditions: for cell viability in primary screen: 1 µM
From the text: (§1) We developed a high-throughput, high-content, cell-based assay to monitor rubella virus infection of the human respiratory cell line A549, as the respiratory tract is infected in humans. […] We infected A549 cells with the rubella virus vaccine strain (RA27/3) and monitored infection using an antibody to the viral glycoprotein E1 (Fig. 1A) ([13]). […] To evaluate the utility of nanchangmycin as a positive control for our assay development, we performed a dose–response assay for nanchangmycin using automated fluorescent microscopy to quantify the cell number as a surrogate for cell viability and percent infection (Fig. 1A).
(§2) A549 cells were plated in 384 well plates at 3,000 cells/well, HBMEC were plated at 7,000 cells/well, or Jeg-3 cells were plated at 3,000 cells/well in 20 μL growth media. The next day, 50 nL of drugs were added to assay wells, yielding a final concentration of 1 µM. The positive control nanchangmycin (n = 32) and the negative control DMSO (n = 32) were spotted on each assay plate. One hour later, cells were infected with rubella virus at a multiplicity of infection (MOI) = 0.234 for A549s, MOI = 0.1 for HBMEC, MOI = 0.05 for Jeg-3 cells). […] HBMECs were spin-infected by centrifuging at 1,250×g for 1 h at 25°C. Cells were fixed at 48 h post infection (hpi) in 4% formaldehyde/phosphate-buffered saline (PBS) for 15 min at room temperature and then washed twice with PBS. Cells were blocked with blocking buffer [2% bovine serum albumin in PBS with 0.1% Triton X-100 (PBST)]) for 1 h and incubated with primary antibody (mouse antirubella E1, CDC, 1 μg/mL) overnight at 4°C. Cells were washed three times with PBST and incubated in secondary (1:1000 antimouse Alexa Fluor 488 and 5 μg/mL Hoechst 33342) for 1 h at room temperature. Cells were washed three times with PBST and imaged using ImageXpress Micro (Molecular Devices). Cells were imaged with a 10× objective capturing four sites per well. The total number of cells and the percentage of infected cells were measured using the MetaXpress 5.3.3 cell scoring module. The aggregated percent infection of the DMSO and 2 µM nanchangmycin control wells on each assay plate were used to calculate Z′-factors. Sample well infection was normalized to aggregated DMSO plate control wells and expressed as percentage of control (POC = [%Infection sample/Average %Infection DMSO] × 100) and Z-score (Z = [%Infection sample − Average %Infection DMSO]/Standard Deviation %Infection DMSO) in Spotfire (PerkinElmer). Candidate hits were selected as compounds with POC <40% and viability >60%, compared with vehicle control.
(§3) Drugs were purchased as powders from Selleckchem, MedchemExpress, and MedKoo and suspended in DMSO. Drugs were arrayed in 8-pt dose–response in 384 well plates. Infections were performed using the screening conditions. DMSO (n = 32) and 2 µM nanchangmycin (n = 16) were included on each validation plate as controls for normalization. Infection at each drug concentration was normalized to aggregated DMSO plate control wells and expressed as POC (POC = %Infection sample/Average %Infection DMSO cont). A nonlinear regression curve fit analysis (GraphPad Prism 8) was performed on POC infection and cell viability using log10 transformed concentration values to calculate IC50 values for infection and CC50 values for cell viability. SI was calculated as a ratio of the drug's CC50 and IC50 values (SI = CC50/IC50).

rubella RA27/3 virus = experiment: microbe, parasite or virus in culture; type: cell-based; conditions: for activity against rubella in A549 cells: dose-response; for inhibition of infection in primary screen: 1 µM, compared with vehicle alone; for inhibition at 1 µM: Rubella virus, A549, read-out: inhibition of infection in primary screen
From the text: as §1
as §2, with “plate.” for “plate. One hour later, cells were infected with rubella virus at a multiplicity of infection (MOI) = 0.234 for A549s, MOI = 0.1 for HBMEC, MOI = 0.05 for Jeg-3 cells).”, “Cells were washed three times with PBST and incubated in secondary (1:1000 antimouse Alexa Fluor 488 and 5 μg/mL Hoechst 33342) for 1 h at room temperature.” left out
as §3

rubella virus [2] = experiment: rubella virus infection of HBMEC, dose-response; type: cell-based; conditions: dose-response
Method: Rubella virus can infect diverse tissues in vivo, and viruses can show tissue-specific dependencies on host factors. […] First, we developed assays in human brain microvascular endothelial cells (HBMECs) as a model for endothelial cells. We again used nanchangmycin to optimize the assay (Fig. 3A and B).
as §2, §3

rubella virus [3] = experiment: rubella virus infection of Jeg-3 cells, dose-response; type: cell-based; conditions: Jeg-3 cells, dose-response
Method: Since rubella can cause congenital infections, we next developed assays in the human trophoblast cell line Jeg-3.
as §2, §3

[4] = cell number (cell viability) in A549 cells, Hoechst 33342, automated microscopy; type: cell-based, human; conditions: human
From the text: as §1, §2, §3

A549 cells [5] = experiment: ATPLite assay of cytotoxicity in A549 cells; type: cell-based, human
From the text: To determine whether LY2090314 is targeting GSK-3 or potentially a different target, we tested two additional GSK-3 inhibitors, AZD2858 and CHIR99021. […] We also validated the PIKfyve inhibitor APY0201, known to block entry of viruses that use endosomal entry routes and found robust activity (SI = 102). […] All three of the NAMPT inhibitors identified in the screen (STF-118804, GMX1778, and daporinad) validated with high potency (SI > 500).

Jeg-3 cells = experiment: cell number (cell viability) in Jeg-3 cells; type: cell-based, human
Method: as §2, with “The aggregated percent infection of the DMSO and 2 µM nanchangmycin control wells on each assay plate were used to calculate Z′-factors.” left out, “Candidate hits were selected as compounds with POC <40% and viability >60%, compared with vehicle control.” left out
Drugs were purchased as powders from Selleckchem, MedchemExpress, and MedKoo and suspended in DMSO. […] Infection at each drug concentration was normalized to aggregated DMSO plate control wells and expressed as POC (POC = %Infection sample/Average %Infection DMSO cont). […] SI was calculated as a ratio of the drug's CC50 and IC50 values (SI = CC50/IC50).

[6] = A549 cells (infected with rubella virus RA27/3), A549 cells, 1 µM, compared with vehicle alone, read-out: cell viability in primary screen

Compound | activity against rubella in A549 cells (rubella RA27/3 virus; A549 cells) | activity against rubella in HBMEC (rubella virus [2]) | selectivity index (SI = CC50/IC50) (rubella RA27/3 virus; A549 cells) | activity against rubella in Jeg-3 cells (rubella virus [3]) | other results
Cc1c(-c2ccc(N3CCc4cccc(C(=O)Nc5nc6ccccc6s5)c4C3)nc2C(=O)O)cnn1CC12CC3CC(CC(C3)C1)C2 [A-1331852] | little activity |  |  |  | toxicity in A549 cells (A549 cells [1]): significant toxicities
Cc1cccc(/C=N/Nc2cc(N3CCOCC3)n3nc(-c4ccncc4)cc3n2)c1 [APY0201] |  | showed activity | 102 | active | 
CN1CCN(S(=O)(=O)c2ccc(-c3cnc(N)c(C(=O)Nc4cccnc4)n3)cc2)CC1 [AZD2858] | little activity |  |  |  | 
Cc1c[nH]c(-c2cnc(NCCNc3ccc(C#N)cn3)nc2-c2ccc(Cl)cc2Cl)n1 [CHIR99021] | little activity |  |  |  | 
Cn1cc(C2=C(c3cccc(N)c3)C(=O)NC2=O)c2ccccc21 [CP21R7] |  |  |  |  | cell viability in primary screen (A549 cells [1]): > 60%; inhibition of infection in primary screen (rubella RA27/3 virus; A549 cells): > 60%
N#CN=C(NCCCCCCOc1ccc(Cl)cc1)Nc1ccncc1 [GMX1778] |  | showed activity | > 500 | active | viability at 48 h, 1 µM ([4]; A549 cells, 1 µM, compared with vehicle alone, read-out: cell viability in primary screen): > 60%; inhibition at 1 µM (rubella RA27/3 virus): > 60%; IC50 (A549 cells [5]; Homo sapiens, A549, read-out: IC50 of ATP content depletion (ATPLite)): 20 nM
CCc1c(O)cc(O)c(C(=O)c2ccc(OCCN3CCOCC3)c(OC)c2)c1CC(=O)N(CCOC)CCOC.Cl [KW-2478] |  |  |  |  | cell viability in primary screen (A549 cells [1]): > 60%; inhibition of infection in primary screen (rubella RA27/3 virus; A549 cells): > 60%
O=C1NC(=O)C(c2cnc3ccccn23)=C1c1cn2c3c(cc(F)cc13)CN(C(=O)N1CCCCC1)CC2 [LY2090314] |  | showed activity | > 2000 | no activity | viability at 48 h, 1 µM [4, 6]: > 60%; toxicity in Jeg-3 cells (Jeg-3 cells; Jeg-3 cells): no toxicity; inhibition at 1 µM (rubella RA27/3 virus): > 60%
CN1CCC(NC(=O)c2cc(-c3c(O)cc(O)cc3Oc3ccc([N+](=O)[O-])cc3)on2)CC1 [NMS-E973] |  |  |  |  | inhibition of infection in primary screen (rubella RA27/3 virus; A549 cells): > 60%
Cc1ccc(S(=O)(=O)Cc2nc(-c3ccc(C(=O)NCc4cccnc4)cc3)oc2C)cc1 [STF-118804] |  | showed activity |  | active | cell viability in primary screen (A549 cells [1]): > 60%; inhibition of infection in primary screen (rubella RA27/3 virus; A549 cells): > 60%; IC50 (A549 cells [5]; A549 cells, read-out: IC50 of ATP content depletion (ATPLite)): 10 nM
N#Cc1c(Oc2ccc(F)c(NC(=O)Cc3cccc(C(F)(F)F)c3)c2)ccc2nc(NC(=O)C3CC3)sc12 [TAK-632] | little activity |  |  |  | 
C/C=C/C[C@@H](C)[C@@H](O)[C@H]1C(=O)N[C@@H](CC)C(=O)N(C)[C@H](C)C(=O)N(CC)[C@@H](C(C)C)C(=O)N[C@@H](C(C)C)C(=O)N(C)[C@@H](CC(C)C)C(=O)N[C@@H](C)C(=O)N[C@H](C)C(=O)N(C)[C@@H](CC(C)C)C(=O)N(C)[C@@H](CC(C)C)C(=O)N(C)[C@@H](C(C)C)C(=O)N1C [alisporivir] | little activity |  |  |  | 
Cc1cccc(/C=N/Nc2cc(N3CCOCC3)nc(OCCc3ccccn3)n2)c1 [apilimod] |  | showed activity | > 8 | active | 
O=C(/C=C/c1cccnc1)NCCCCC1CCN(C(=O)c2ccccc2)CC1 [daporinad] |  | showed activity | > 500 | active | viability at 48 h, 1 µM [4, 6]: > 60%; inhibition at 1 µM (rubella RA27/3 virus): > 60%; IC50 (A549 cells [5]; Homo sapiens, A549 cells, read-out: IC50 of ATP content depletion (ATPLite)): 10 nM
COC1=C2C[C@@H](C)C[C@H](OC)[C@H](O)[C@@H](C)/C=C(\C)[C@H](OC(N)=O)[C@@H](OC)/C=C\C=C(/C)C(=O)NC(=CC1=O)C2=O [geldanamycin] |  | showed activity | > 163 |  | viability at 48 h, 1 µM [4]: > 60%; toxicity in Jeg-3 cells (Jeg-3 cells): high toxicity; inhibition at 1 µM (rubella RA27/3 virus): > 60%
COc1c(C)c2c(c(O)c1C/C=C(\C)CCC(=O)O)C(=O)OC2 [mycophenolic acid] |  | showed activity | 6 | active | toxicity in A549 cells (A549 cells [1]; human, 48 h): higher toxicity in A549 cells than in Jeg-3 cells
CO[C@H]1CC[C@@H](O[C@H]2C[C@H]([C@]3(C)CC[C@]4(C[C@H](O)[C@@H](C)[C@@H]([C@@H](C)/C=C(\C)C(=O)[C@H](C)C[C@H](C)C(=O)O)O4)O3)O[C@]3(O[C@@H]([C@H]4O[C@@](O)(CO)[C@H](C)C[C@@H]4C)C[C@@H]3C)[C@@H]2C)O[C@@H]1C [nanchangmycin] |  |  |  | active | CC50 (A549 cells [1]; A549 cells, cell number, read-out: half-maximal cytotoxicity concentration (CC50)): 3000 nM; IC50 (rubella RA27/3 virus; A549 cells, 48 hpi, read-out: half-maximal inhibitory concentration (IC50), rubella virus infection): 30 nM; EC50 (rubella RA27/3 virus; A549 cells, MOI = 0.2, 48 hpi, read-out: EC50 (printed in Fig. 1B)): 30 nM
CC1(C)CCC(c2ccc(Cl)cc2)=C(CN2CCN(c3ccc(C(=O)NS(=O)(=O)c4ccc(N[C@H](CCN5CCOCC5)CSc5ccccc5)c(S(=O)(=O)C(F)(F)F)c4)cc3)CC2)C1 [navitoclax] | little activity |  |  |  | toxicity in A549 cells (A549 cells [1]): significant toxicities
COC1=CC(c2cc3ccccc3[nH]2)=N/C1=C\c1[nH]c(C)cc1C [obatoclax] | little activity | showed activity |  | active | toxicity in A549 cells (A549 cells [1]): significant toxicities
